Test results from the supplement of paper PMC10307832.

What was measured:
Assay in all cases: relative viability (nuclei count vs DMSO), 5 days (fraction); higher = more cells survive
[1] = compound: C1/C(=C\C2=CC=CS2)/C(=O)/C(=C/C3=CC=CS3)/C1 + O=C(c1cc(Cc2n[nH]c(=O)c3ccccc23)ccc1F)N1CCN(C(=O)C2CC2)CC1 [Olaparib] (partner 8 µM)
Summary of the method: (§1)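 Lung cancer cell lines, seeded in 1536-well plates, were treated the following day by pin tool with a single drug or with five library-drug doses (not always all listed) in √10 steps on top of a fixed anchor-drug dose. Cells were fixed and nuclei stained in one step after 5 days, and nuclei were counted. Relative viability is the nuclei count for treated wells divided by that for vehicle wells, reported as medians of duplicate plates.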

[2] = compound: C1=CC(=CC=C1C2=CC(=C(S2)NC(=O)N)C(=O)N)F [TPCA-1] + O=C(CCCCCCC(=O)Nc1ccccc1)NO [Vorinostat] (partner 1 µM)
Summary of the method: as §1

[3] = compound: C1/C(=C\C2=CC=CS2)/C(=O)/C(=C/C3=CC=CS3)/C1 + NC(=O)Nc1cc(-c2cccc(F)c2)sc1C(=O)N[C@H]1CCCNC1 [AZD7762] (partner 0.2 µM)
Summary of the method: as §1

[4] = compound: C1/C(=C\C2=CC=CS2)/C(=O)/C(=C/C3=CC=CS3)/C1 + O=C(CCCCCCC(=O)Nc1ccccc1)NO [Vorinostat] (partner 1 µM)
Summary of the method: as §1

Cell Line	relative viability ([1]; first compound 0.2 µM)	relative viability ([1]; first compound 0.6325 µM)	relative viability ([1]; first compound 2 µM)	relative viability ([1]; first compound 20 µM)	relative viability ([2]; first compound 0.04 µM)	relative viability ([2]; first compound 0.1265 µM)	relative viability ([2]; first compound 0.4 µM)	relative viability ([2]; first compound 1.265 µM)	relative viability ([2]; first compound 4 µM)	relative viability ([3]; first compound 0.2 µM)	relative viability ([3]; first compound 0.6325 µM)	relative viability ([3]; first compound 2 µM)	relative viability ([3]; first compound 20 µM)	relative viability ([4]; first compound 0.2 µM)	relative viability ([4]; first compound 0.6325 µM)	relative viability ([4]; first compound 2 µM)	relative viability ([4]; first compound 20 µM)	relative viability ([1]; first compound 6.325 µM)	relative viability ([3]; first compound 6.325 µM)	relative viability ([4]; first compound 6.325 µM)
NCI-H727	0.803	0.627	0.755	0.697	1.21	0.947	1.26	1.25	1.31	0.574	0.527	0.731	0.682	1.23	1.23	1.28	1.12	–	–	–
HARA	1.11	0.862	0.944	0.83	0.55	0.51	0.528	0.433	0.361	0.431	0.271	0.319	0.336	0.722	0.498	0.641	0.458	0.716	0.361	0.485
NCI-H2228	0.69	0.431	0.606	0.482	0.733	0.813	0.933	0.501	0.567	–	–	–	–	0.668	0.563	0.764	0.504	0.543	–	0.396
LCLC-97TM1	0.459	0.389	0.344	0.347	0.844	0.488	0.905	0.365	0.0988	0.3	0.254	0.259	0.14	0.845	0.818	0.757	0.66	0.275	0.252	0.631
LC-2-ad	0.73	0.728	0.684	0.713	0.742	0.69	0.705	0.716	0.155	0.871	0.899	0.871	0.825	0.696	0.745	0.711	0.64	0.577	0.72	0.647
SK-LU-1	0.427	0.34	0.541	0.514	0.872	0.672	0.774	0.577	0.449	–	–	–	–	0.849	0.764	0.75	0.774	0.443	–	0.677
EKVX	0.884	0.734	0.951	0.821	0.724	0.622	0.766	0.76	0.654	0.631	0.685	0.764	0.695	0.893	0.625	0.873	0.678	–	–	–
HCC-827	0.589	0.582	0.72	0.597	0.987	0.764	0.89	0.841	0.671	0.21	0.192	0.245	0.245	0.999	0.897	0.908	0.822	0.646	0.226	0.764
NCI-H650	0.575	0.425	0.376	0.423	0.414	0.402	0.41	0.308	0.27	1.14	0.952	0.897	1.11	0.432	0.436	0.419	0.373	0.378	0.937	0.413
CAL-12T	0.691	0.749	0.742	0.733	0.763	0.523	0.762	0.733	0.568	0.597	0.84	0.592	0.547	0.724	0.91	0.648	0.788	0.648	0.537	0.77
NCI-H2342	0.392	0.464	0.454	0.435	0.77	0.699	0.681	0.683	0.663	0.484	0.537	0.718	0.363	0.667	0.997	0.85	0.683	0.419	0.483	0.757
SW 900	0.752	0.839	0.87	0.99	–	–	0.515	0.422	0.45	0.74	0.665	0.628	0.602	0.525	0.485	0.569	0.558	0.882	0.495	0.59
IA-LM	0.874	0.871	0.755	0.879	1.02	0.942	0.999	–	0.699	–	–	–	–	0.959	1.09	1.01	0.852	0.618	–	0.885
EPLC-272H	0.858	0.907	0.627	0.579	0.53	0.403	0.523	0.256	0.258	0.179	0.276	0.182	0.183	0.464	0.384	0.615	0.358	0.506	0.221	0.318
A-427	0.802	0.797	0.762	0.786	0.891	0.806	0.927	0.912	0.227	0.78	0.836	0.822	0.72	0.884	0.838	0.855	0.89	0.467	0.724	0.828
NCI-H647	0.776	0.482	0.433	0.573	0.48	0.599	0.518	0.312	0.218	0.504	0.471	0.446	0.592	0.44	0.539	0.398	0.774	0.501	0.445	0.423
NCI-H1975	0.757	0.795	0.855	0.782	0.724	0.699	0.712	0.632	0.444	0.826	0.801	0.656	0.763	0.814	0.671	0.774	0.731	0.538	0.618	0.689

Cell Line	relative viability ([1]; first compound 0.2 µM)	relative viability ([1]; first compound 0.6325 µM)	relative viability ([1]; first compound 2 µM)	relative viability ([1]; first compound 20 µM)	relative viability ([2]; first compound 0.04 µM)	relative viability ([2]; first compound 0.1265 µM)	relative viability ([2]; first compound 0.4 µM)	relative viability ([2]; first compound 1.265 µM)	relative viability ([2]; first compound 4 µM)	relative viability ([3]; first compound 0.2 µM)	relative viability ([3]; first compound 0.6325 µM)	relative viability ([3]; first compound 2 µM)	relative viability ([3]; first compound 20 µM)	relative viability ([4]; first compound 0.2 µM)	relative viability ([4]; first compound 0.6325 µM)	relative viability ([4]; first compound 2 µM)	relative viability ([4]; first compound 20 µM)	relative viability ([1]; first compound 6.325 µM)	relative viability ([3]; first compound 6.325 µM)	relative viability ([4]; first compound 6.325 µM)
NCI-H358	0.862	0.715	0.657	0.492	0.695	0.576	0.634	0.409	0.168	0.643	0.53	0.593	0.572	0.8	0.814	0.704	0.773	0.443	0.444	0.511
PC-3 [JPC-3]	–	1.22	1.09	1.19	0.787	0.765	0.963	0.818	0.284	–	0.934	0.889	0.798	–	0.985	0.954	1.03	0.762	0.804	0.74
NCI-H1792	0.499	0.492	0.627	0.474	–	–	–	–	–	0.772	0.755	0.75	0.587	–	–	–	–	0.279	0.521	–
COR-L 105	0.753	0.757	0.646	0.618	1.02	0.709	0.766	0.628	0.391	–	–	–	–	0.653	0.969	0.852	0.669	0.434	–	0.391
NCI-H2023	0.457	0.501	0.459	0.417	0.634	0.608	0.772	0.506	0.241	–	–	–	–	0.722	0.67	0.727	0.539	0.459	–	0.582
EBC-1	0.687	0.754	0.652	0.69	–	–	–	–	–	–	–	–	–	–	–	–	–	0.593	–	–
NCI-H520	0.316	0.34	0.324	0.35	0.72	0.636	0.782	0.605	0.497	–	–	–	–	0.767	0.787	0.733	0.72	–	–	–
NCI-H1650	0.854	0.793	0.734	0.717	0.717	0.575	0.584	0.675	0.498	–	–	–	–	0.49	0.44	0.796	0.498	0.69	–	0.56
SK-MES-1	0.792	0.781	0.696	0.729	1.14	1.01	0.966	1.02	0.438	–	–	–	–	1.18	1.13	1.1	1.11	0.669	–	0.985
NCI-H1299	1.01	0.969	0.953	0.962	–	–	–	–	–	–	–	–	–	–	–	–	–	0.817	–	–
A549	0.352	0.283	0.642	0.354	–	–	–	–	–	–	–	–	–	–	–	–	–	0.286	–	–
NCI-H1703	0.547	0.54	0.536	0.574	–	–	–	–	–	0.121	0.176	0.148	0.128	–	–	–	–	0.423	0.119	–
NCI-H661	0.757	0.76	0.712	0.81	0.739	0.759	0.806	0.754	0.483	–	–	–	–	0.845	0.825	0.756	0.778	0.614	–	0.638
NCI-H2009	0.71	0.683	0.701	0.707	0.746	0.785	0.693	0.757	0.675	–	–	–	–	0.721	0.733	0.729	0.68	–	–	–
Calu-6	0.548	0.595	0.55	0.524	–	–	–	–	–	–	–	–	–	–	–	–	–	0.586	–	–
COR-L23	0.408	0.367	0.323	0.325	0.502	0.424	0.484	0.292	0.153	–	–	–	–	0.475	0.597	0.477	0.451	0.388	–	0.348
SW 1573	0.394	0.455	0.556	0.248	0.998	0.6	0.876	0.787	0.233	–	–	–	–	0.756	0.971	0.89	0.808	0.435	–	0.721
